The values that follow come from PubChem BioAssay (NCI).

Among the test systems are ACHN renal; HOP-92 NSCLC; IGROV1 ovarian; KM12 colon; MDA-MB-435; SF-295 CNS; SR leukemia; TK-10 renal; U251 CNS; HL-60(TB) leukemia.
Common to all, as to assay: growth of human tumour cells (NCI), 48 h

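These data come from cells grown in 96-well plates and exposed to compound for 48 hours at five concentrations. GI50 marks 50% less growth. TGI: total growth inhibition.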

Regarding `C=C(C(=O)OCC)C(=O)OCC`, the TGI in the assay with ACHN renal, in the assay with HOP-92 NSCLC, in the assay with IGROV1 ovarian, in the assay on KM12 colon, in the assay on MDA-MB-435 and with SF-295 CNS was above 100 µM each time. Besides, the TGI in the assay on SR leukemia, in the assay on TK-10 renal and in the assay on U251 CNS was above 100 µM in each case.
`Nc1ccc(N=Nc2c(S(=O)(=O)O)cc3ccccc3c2S(=O)(=O)O)cc1`: the TGI in the assay with ACHN renal, with HOP-92 NSCLC, with IGROV1 ovarian, in the assay with KM12 colon, in the assay with MDA-MB-435 and in the assay with SF-295 CNS was above 100 µM throughout. The TGI in the assay with SR leukemia, with TK-10 renal and with U251 CNS was above 100 µM each time.
As for `O=c1oc2cc(O)ccc2c(O)c1C(c1ccccc1)c1c(O)c2ccc(O)cc2oc1=O`, the TGI in the assay on HL-60(TB) leukemia, with HOP-92 NSCLC, with IGROV1 ovarian, with MDA-MB-435, in the assay on SF-295 CNS and in the assay on SR leukemia was above 100 µM in each case. Further, the TGI in the assay on TK-10 renal and in the assay with U251 CNS was above 100 µM each time.
Take `O=C1CC2(CCC(O)(c3ccc4ccccc4c3)C(C(=O)c3ccc4ccccc4c3)C2)C(=O)c2ccccc2N1` (stereo unspecified): the TGI with HL-60(TB) leukemia, in the assay with HOP-92 NSCLC, in the assay on IGROV1 ovarian, in the assay on MDA-MB-435, with SF-295 CNS and in the assay on SR leukemia was above 100 µM each time. Moreover, the TGI with TK-10 renal and in the assay on U251 CNS was above 100 µM in each case.
Turning to `O=C1CCC(c2ccccc2)=NN1c1nsc2ccccc12`, the TGI in the assay with ACHN renal, in the assay with HL-60(TB) leukemia, with HOP-92 NSCLC, in the assay on IGROV1 ovarian, in the assay on KM12 colon and in the assay on SR leukemia was above 100 µM throughout. Also, the TGI in the assay with TK-10 renal and in the assay on U251 CNS was above 100 µM throughout.
Take `O=C(O)C(Cl)(Cl)Cl`: the TGI with ACHN renal, in the assay with HL-60(TB) leukemia, in the assay with HOP-92 NSCLC, in the assay with IGROV1 ovarian, with KM12 colon and with SF-295 CNS was above 100 µM each time. The TGI in the assay with SR leukemia, in the assay on TK-10 renal and with U251 CNS was above 100 µM throughout.
With `CCCCCCCCCCCCCCCCNc1cccc2ccccc12`, the TGI in the assay with ACHN renal, in the assay with HL-60(TB) leukemia, in the assay with IGROV1 ovarian, with KM12 colon, in the assay on SF-295 CNS and in the assay with SR leukemia was above 100 µM in each case. Also, the TGI in the assay with TK-10 renal and with U251 CNS was above 100 µM in each case.
For `C[n+]1c(/C=C/c2c(O)ccc3ccccc23)ccc2ccccc21`, the GI50 in the assay on ACHN renal was 5.1 µM; in the assay with HL-60(TB) leukemia it was 5.7 µM; in the assay with HOP-92 NSCLC, 0.854 µM; in the assay with IGROV1 ovarian, 4.6 µM; in the assay on KM12 colon it was 4.33 µM; in the assay on MDA-MB-435 it was 5.84 µM. The GI50 is 5.82 µM in the assay on SF-295 CNS, 1.21 µM with SR leukemia, 5.49 µM in the assay on TK-10 renal and 5.43 µM in the assay with U251 CNS. Besides, the TGI came to 11.4 µM in the assay with ACHN renal; 13.4 µM in the assay on HL-60(TB) leukemia; 6.17 µM in the assay on HOP-92 NSCLC; 12.7 µM with IGROV1 ovarian; 11.2 µM with KM12 colon; 12.6 µM with MDA-MB-435. Moreover, the TGI in the assay on SF-295 CNS was 13.5 µM; with SR leukemia, 3.31 µM; in the assay with TK-10 renal, 11.7 µM; in the assay with U251 CNS it was 13.8 µM.
For the molecule `COc1cc2c(cc1OC)C(C(c1ccccc1)c1ccccc1)N(C)CC2` (stereo unspecified), the TGI in the assay on HL-60(TB) leukemia is above 100 µM; in the assay with HOP-92 NSCLC, above 70.8 µM; in the assay on IGROV1 ovarian, above 100 µM; in the assay with KM12 colon it was above 100 µM; in the assay with SF-295 CNS, above 100 µM; with U251 CNS it was above 100 µM.
With `C[N+](C)([O-])CCOc1cc2c(c3ccccc13)-c1ccccc1C2=O`, the TGI in the assay on HL-60(TB) leukemia is 35.5 µM; with HOP-92 NSCLC, above 68.5 µM; with IGROV1 ovarian it was 99.8 µM; in the assay with KM12 colon, 66.5 µM; in the assay on SF-295 CNS it was above 72.1 µM; in the assay with U251 CNS it was 25.8 µM.
`COc1cnc2c(c1)C(=O)c1c-2n(CCCN2CCOCC2)c(=O)c2cc(Cl)ccc12`: the GI50 in the assay with ACHN renal was 0.332 µM; with HL-60(TB) leukemia, 0.455 µM; in the assay on HOP-92 NSCLC, 32.7 µM; with SF-295 CNS, 0.239 µM; in the assay with SR leukemia, 0.0797 µM; with TK-10 renal, above 100 µM. The TGI with ACHN renal was above 100 µM; in the assay on HL-60(TB) leukemia, above 100 µM; in the assay on HOP-92 NSCLC it was above 100 µM; in the assay on SF-295 CNS, 0.664 µM; in the assay on SR leukemia, above 100 µM; in the assay with TK-10 renal, above 100 µM.
As to `NC(=O)c1c(NC(=O)c2ccccc2)sc2c1CCC(=O)C2`, the GI50 in the assay on ACHN renal is 0.698 µM; with HL-60(TB) leukemia it was 0.378 µM; in the assay with HOP-92 NSCLC, 1.42 µM; in the assay on IGROV1 ovarian, 1.01 µM; in the assay with KM12 colon, 1.36 µM; in the assay on MDA-MB-435, 3.09 µM. Besides, the GI50 with SF-295 CNS was 2.69 µM; with TK-10 renal, 6.91 µM; in the assay on U251 CNS, 0.955 µM. Further, the TGI with ACHN renal turned out to be 2.48 µM; with HL-60(TB) leukemia, 3.57 µM; in the assay with HOP-92 NSCLC, 4.99 µM; with IGROV1 ovarian it was 13.3 µM; in the assay with KM12 colon, 5.61 µM; in the assay on MDA-MB-435 it was 10.5 µM. Also, the TGI with SF-295 CNS is 7.94 µM; in the assay on TK-10 renal it was above 100 µM; in the assay with U251 CNS, 26.7 µM.
